Data from the supplement of paper PMC10307832.

Key:
Assay in all cases: relative viability (nuclei count vs DMSO), 5 days (fraction); higher = more cells survive
Veliparib + OSI-027 = compound: C[C@]1(c2nc3c(C(N)=O)cccc3[nH]2)CCCN1 [Veliparib] + COc1cccc2cc(-c3nc([C@H]4CC[C@H](C(=O)O)CC4)n4ncnc(N)c34)[nH]c12 [OSI-027] (partner 0.5 µM)
In short: (§1)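 Each reported value is a median over duplicate plates. It expresses relative viability: treated-well nuclei count divided by vehicle-well nuclei count. Lung cancer cell lines in 1536-well plates were dosed by pin tool a day after seeding, alone with one drug or with a fixed anchor-drug dose plus five library-drug doses (not always all listed) in √10 steps, and nuclei were counted after 5 days.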

Veliparib + Vorinostat = compound: C[C@]1(c2nc3c(C(N)=O)cccc3[nH]2)CCCN1 [Veliparib] + O=C(CCCCCCC(=O)Nc1ccccc1)NO [Vorinostat] (partner 1 µM)
In short: as §1

Veliparib + Linsitinib = compound: C[C@]1(c2nc3c(C(N)=O)cccc3[nH]2)CCCN1 [Veliparib] + C[C@]1(O)C[C@@H](c2nc(-c3ccc4ccc(-c5ccccc5)nc4c3)c3c(N)nccn32)C1 [Linsitinib] (partner 1 µM)
In short: as §1

Veliparib + Alpelisib = compound: C[C@]1(c2nc3c(C(N)=O)cccc3[nH]2)CCCN1 [Veliparib] + Cc1nc(NC(=O)N2CCC[C@H]2C(N)=O)sc1-c1ccnc(C(C)(C)C(F)(F)F)c1 [Alpelisib] (partner 2 µM)
In short: as §1

Cell Line	relative viability (Veliparib + OSI-027; first compound 0.02 µM)	relative viability (Veliparib + OSI-027; first compound 0.06325 µM)	relative viability (Veliparib + OSI-027; first compound 0.2 µM)	relative viability (Veliparib + OSI-027; first compound 0.6325 µM)	relative viability (Veliparib + OSI-027; first compound 2 µM)	relative viability (Veliparib + Vorinostat; first compound 0.02 µM)	relative viability (Veliparib + Vorinostat; first compound 0.2 µM)	relative viability (Veliparib + Vorinostat; first compound 0.6325 µM)	relative viability (Veliparib + Vorinostat; first compound 2 µM)	relative viability (Veliparib + Linsitinib; first compound 0.02 µM)	relative viability (Veliparib + Linsitinib; first compound 0.06325 µM)	relative viability (Veliparib + Linsitinib; first compound 0.2 µM)	relative viability (Veliparib + Linsitinib; first compound 0.6325 µM)	relative viability (Veliparib + Linsitinib; first compound 2 µM)	relative viability (Veliparib + Alpelisib; first compound 0.02 µM)	relative viability (Veliparib + Alpelisib; first compound 0.06325 µM)	relative viability (Veliparib + Alpelisib; first compound 0.2 µM)	relative viability (Veliparib + Alpelisib; first compound 0.6325 µM)	relative viability (Veliparib + Alpelisib; first compound 2 µM)	relative viability (Veliparib + Vorinostat; first compound 0.06325 µM)
PC-3 [JPC-3]	0.773	0.74	0.813	0.755	0.755	0.68	1.02	1.03	0.922	0.929	0.921	0.917	0.883	0.972	1.1	0.981	0.959	1.03	0.993	–
LOU-NH91	0.716	0.669	0.688	0.726	0.74	0.846	0.919	0.822	0.945	0.9	0.932	0.971	0.901	1.02	0.698	0.72	0.76	0.706	0.748	0.842
NCI-H838	0.419	0.328	0.409	0.296	0.372	0.792	0.71	0.652	0.725	1.07	0.981	1.03	0.888	1.1	0.971	0.843	1.08	0.935	1	0.692
NCI-H23	0.652	0.393	0.587	0.518	0.737	0.633	0.544	0.543	0.56	0.775	0.504	0.574	0.505	0.65	0.662	0.623	0.749	0.564	0.713	0.45
NCI-H2023	0.339	0.398	0.442	0.347	0.432	–	0.581	0.472	0.48	0.712	0.692	0.677	0.538	0.658	0.629	0.621	0.569	0.502	0.669	0.536
NCI-H1993	0.592	0.531	0.562	0.585	0.51	–	0.966	0.804	0.688	0.7	0.683	0.738	0.7	0.726	0.655	0.615	0.726	0.639	0.75	0.775
